Measured values as given in patent publication US10159697B2, “Methods for enhancing hematopoietic stem/progenitor cell engraftment” (CHILDREN'S MEDICAL CENTER CORPORATION, priority 2009, dated 2018).

Test system: hematopoietic stem and/or progenitor cell engraftment
Assay: adult zebrafish whole kidney marrow competitive transplantation assay
Type: in vivo
Details: for engraftment signal in pilot screen of 10 bioactive compounds: by four weeks post transplant, 10 recipients per treatment; for average G/R / percentage of positive recipients: green marrow cells incubated in vitro for 4 hrs, mixed with red marrow 1:4, 4 wpt, compared with DMSO control; for engraftment: in vitro incubation of green marrow with 10 μM dmPGE2 or 0.5 μM BIO at room temperature for 2-4 hours, by 4 weeks post transplant
Excerpt: A transparent adult zebrafish, casper, was used as a transplantation recipient. Casper is a double homozygous pigment mutant for the nacre allele (devoid of melanocytes) and the roy allele (devoid of iridophores and reduced melanoyctyes), which allows direct visualization of GFP labeled hematopoietic stem cell homing and engraftment without killing the recipients. Two marrows are used: Tg(β-actin:GFP) and Red GloFish® respectively to compete with each other at varying ratios e.g., 1:4, which can generate robust competition between the two donors. In one embodiment, the red marrow is the competitor, as well as an internal control for the transplant. At different timepoints post-transplant, the recipients are anesthetized and two pictures for each recipient are taken by a fluorescence stereomicroscope with GFP/DsRed filters individually. Images are analyzed by software, such as ImageJ, which can quantify the GFP/DsRed fluorescence intensity. The relative engraftment efficiency of the manipulated green marrow is measured by the ratio of the GFP intensity over the DsRed intensity within the same kidney region after background subtraction (labeled as G/R).
A double-color labeled competitive transplantation assay was developed, as shown by the flow chart in FIG. 1A. GFP+ and DsRed2+ marrow cells are isolated from Tg(β-actin:GFP) and commercially available Red GloFish®. The two donor populations are mixed at a certain ratio and injected into sublethally irradiated casper recipients retro-orbitally. The DsRed2+ marrow is used as the competitor. Four weeks later, the engraftment is visualized by fluorescence dissection scope. Pictures of GFP and DsRed engraftment are taken for each recipient and analyzed by ImageJ. The kidney region is manually selected and the average fluorescence intensities of both green and red are measured within the same region. The average background intensity is measured in a region outside the fish, and subtracted from the kidney intensity. The calculation of the relative engraftment is shown by the equation in FIG. 1B.
Adult zebrafish donors are anaesthetized with 0.2% tricaine before blood and kidney collection. Peripheral blood is obtained from adult casper by cardiac puncture with micropipette tips coated with heparin and collected into 0.9×PBS containing 5% FCS. About 3-5 million red blood cells are harvested from one donor. To dissect whole kidney marrow (WKM), a ventral midline incision is made on the donor fish. Whole kidney is dissected out and placed into ice-cold 0.9×PBS containing 5% FCS. Single-cell suspensions are generated by aspiration followed by filtering through a […] nylon mesh filter into a 50 ml conical tube. The flow-though part is diluted with a final volume of 25 ml and centrifuged at 1,500 rpm for 8 minutes. The supernatant is discarded and the pellet cells are resuspended in 1 ml 0.9×PBS containing 5% FCS. The number of viable cells are counted with a hemocytometer. […] Finally, the peripheral blood and kidney marrow cells are centrifuged at 1,500 rpm for 8 minutes, resuspended in 0.9×PBS containing 5% FCS and mixed at a certain ratio and concentration. Casper recipients are anesthetized in tricaine. 4 μl of the cell suspension mixture described above is injected into the circulation retro-orbitally through a Hamilton syringe (26 s gauge, 10 μl volume). […] Transplanted recipients can be anesthetized in tricaine and visualized over time on a Zeiss Discovery V8 stereomicroscope with a 1.2× PlanApo lens and GFP/DsRed filters. Images are captured using AxioVision software and for each recipient, two images are taken with GFP or DsRed filter respectively. The images are all saved in .tif format and analyzed using ImageJ software.

Structure (SMILES)	score in the competitive transplant model (at 3 months)	score in the competitive transplant model (at 4 weeks)	engraftment signal in pilot screen of 10 bioactive compounds	average G/R	percentage of positive recipients	engraftment
CCCCC(C)(C)[C@H](O)/C=C/[C@H]1[C@H](O)CC(=O)[C@@H]1C/C=C\CCCC(=O)O [dmPGE2, 16-,16-dimethyl Prostaglandin E2]	score positive	score positive	enhanced signal above the rest of the chemicals tested	significantly increased	significantly increased	increase engraftment
O=C1Nc2cc(Br)ccc2C1=C1Nc2ccccc2C1=NO [BIO, 6-bromorindirubin-3′-oxime]	score positive	score positive	enhanced signal above the rest of the chemicals tested	significantly increased	significantly increased	increase engraftment
